According to patent US20070032529A1, “Pyrazole compounds and their use as antidiabetes agents” (Japan Tobacco Inc., priority 2005, published 2007):
Values belong to the compound of their own block, whether it stands above or below them.

Target: T1, recombinant human liver glycogen phosphorylase (Homo sapiens, UniProt P06737)
T1 construct: made in house; host or cells: Sf9 insect cells (crude homogenate, diluted, used as the enzyme solution)
T1 sequence (P06737 1-847): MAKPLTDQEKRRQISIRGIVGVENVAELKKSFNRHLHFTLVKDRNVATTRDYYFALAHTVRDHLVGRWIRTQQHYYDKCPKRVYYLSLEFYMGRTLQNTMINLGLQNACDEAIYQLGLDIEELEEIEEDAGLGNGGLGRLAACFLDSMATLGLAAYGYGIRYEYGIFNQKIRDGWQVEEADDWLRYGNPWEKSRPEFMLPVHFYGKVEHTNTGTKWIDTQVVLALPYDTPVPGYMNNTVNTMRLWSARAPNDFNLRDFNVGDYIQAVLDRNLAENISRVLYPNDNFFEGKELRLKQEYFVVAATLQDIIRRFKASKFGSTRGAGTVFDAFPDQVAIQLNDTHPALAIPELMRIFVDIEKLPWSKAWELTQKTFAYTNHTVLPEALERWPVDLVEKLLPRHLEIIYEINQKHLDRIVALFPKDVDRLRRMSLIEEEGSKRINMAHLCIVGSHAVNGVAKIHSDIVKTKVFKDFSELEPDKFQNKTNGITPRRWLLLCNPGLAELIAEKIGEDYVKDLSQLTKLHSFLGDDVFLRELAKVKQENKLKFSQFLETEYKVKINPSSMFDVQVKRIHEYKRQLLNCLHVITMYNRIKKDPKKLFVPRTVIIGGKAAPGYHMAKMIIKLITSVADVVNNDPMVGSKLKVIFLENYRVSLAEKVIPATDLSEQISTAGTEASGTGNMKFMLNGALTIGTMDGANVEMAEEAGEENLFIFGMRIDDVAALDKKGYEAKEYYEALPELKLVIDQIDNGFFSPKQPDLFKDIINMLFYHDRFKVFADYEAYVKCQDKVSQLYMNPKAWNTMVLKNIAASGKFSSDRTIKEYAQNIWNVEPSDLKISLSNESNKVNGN
Test: Measuring liver glycogen phosphorylase activity (forward reaction system, NADPH absorbance at 340 nm)
Type: biochemical
Conditions: for inhibition rate (%) at a certain concentration: compound concentration 100 nmol (in parentheses); for inhibition at 0.1 µM: figure in brackets (100), read-out: IC50: % value given with (100); for inhibition at 0.3 µM: figure in brackets (300), read-out: IC50 column: % value printed with (300)
Summary of the method: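 Sf9 homogenate expressing the enzyme, in pH 6.8 BES/EDTA, with glycogen and phosphate substrate plus glucose, coupled via phosphoglucomutase/G6PDH to NADPH formation. A340 change over 75 min at room temperature, blank-corrected; IC50 linearly interpolated between the two concentrations bracketing 50% inhibition versus 1% DMSO control.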

[1] = enzyme inhibitory activity with respect to liver glycogen phosphorylase, class symbols
[2] = human liver glycogen phosphorylase, class symbol

inhibition at 0.1 µM: 15.5%
Compound: NC(=O)CNC(=O)c1cc(NC(=O)c2cc(F)c(F)cc2Cl)[nH]n1 [Example 6-1]

inhibition at 0.3 µM: 12.3%
Compound: CN(C(=O)c1cc(NC(=O)c2cc(F)c(Cl)cc2Cl)[nH]n1)c1ccc(C(N)=O)cc1 [Example 6-2]

inhibition at 0.3 µM: 9.7%
Compound: CNC(=O)c1ccc(N(C)C(=O)c2cc(NC(=O)c3cc(F)c(Cl)cc3Cl)[nH]n2)cc1 [Example 6-3]

inhibition at 0.3 µM: 46.8%
Compound: CN(C)C(=O)c1ccc(N(C)C(=O)c2cc(NC(=O)c3cc(F)c(Cl)cc3Cl)[nH]n2)cc1 [Example 6-4]

IC50 [2]: < 100 nM
Compound: CN(C(=O)c1cc(NC(=O)c2cc(F)c(F)cc2Cl)[nH]n1)c1ccc(C(=O)NS(C)(=O)=O)cc1 [Example 6-5]

inhibition at 0.3 µM: 12.9%
Compound: CN(C(=O)c1cc(NC(=O)c2cc(F)c(F)cc2Cl)[nH]n1)c1ccc(C#N)cc1 [Example 6-7]

inhibition at 0.3 µM: 5.5%
Compound: CN(C(=O)c1cc(NC(=O)c2cc(F)c(N=[N+]=[N-])cc2Cl)[nH]n1)c1ccc(C#N)cc1 [Example 6-9]

IC50 [2]: 100 to 300 nM
Compound: CN(C(=O)c1cc(NC(=O)c2cc(F)c(N=[N+]=[N-])cc2Cl)[nH]n1)c1ccc(-c2nnn[nH]2)cc1 [Example 6-10]

inhibition at 0.1 µM: 2.1%
Compound: CN(C(=O)c1cc(NC(=O)c2cc(F)c(F)cc2Cl)[nH]n1)c1ccc(C(=N)NO)cc1 [Example 6-11]

inhibition at 0.1 µM: 17.5%
Compound: CN(C(=O)c1cc(NC(=O)c2cc(F)c(F)cc2Cl)[nH]n1)c1ccc(C(=O)OCOC(=O)C(C)(C)C)cc1 [Example 6-13]

inhibition at 0.1 µM: 20.1%
Compound: COC(=S)ON=C(N)c1ccc(N(C)C(=O)c2cc(NC(=O)c3cc(F)c(F)cc3Cl)[nH]n2)cc1 [Example 6-14]

IC50 [2]: < 100 nM
Compound: CN(C(=O)c1cc(NC(=O)c2cc(F)c(F)cc2Cl)[nH]n1)c1ccc(-c2noc(=S)[nH]2)cc1 [Example 6-15]

inhibition at 0.1 µM: 6.8%
Compound: CCOC(=O)c1csc(N(CC)C(=O)c2cc(NC(=O)c3cc(F)c(F)cc3Cl)[nH]n2)n1 [Example 6-18]

IC50 [2]: < 100 nM
Compound: CS(=O)(=O)Nc1ccccc1CNC(=O)c1cc(NC(=O)c2cc(F)c(F)cc2Cl)[nH]n1 [Example 6-19]

IC50 [2]: < 100 nM
Compound: CC(=O)Nc1ccccc1CNC(=O)c1cc(NC(=O)c2cc(F)c(F)cc2Cl)[nH]n1 [Example 6-20]

IC50 [2]: < 100 nM
Compound: CC(=Nc1ccccc1CNC(=O)c1cc(NC(=O)c2cc(F)c(F)cc2Cl)[nH]n1)N(C)C [Example 6-24]

IC50 [2]: < 100 nM
Compound: CC(=Nc1cccc(CNC(=O)c2cc(NC(=O)c3cc(F)c(F)cc3Cl)[nH]n2)c1)N(C)C [Example 6-25]

More lines, now with the values behind:

Compound: O=C(NN1CCOCC1)c1ccc(CNC(=O)c2cc(NC(=O)c3cc(F)c(F)cc3Cl)[nH]n2)cc1 [Example 5-5]
IC50 [1]: < 100 nM

Compound: O=C(O)CNC(=O)c1ccc(CNC(=O)c2cc(NC(=O)c3cc(F)c(F)cc3Cl)[nH]n2)cc1 [Example 5-6]
IC50 [1]: < 100 nM

Compound: O=C(O)CCNC(=O)c1ccc(CNC(=O)c2cc(NC(=O)c3cc(F)c(F)cc3Cl)[nH]n2)cc1 [Example 5-7]
IC50 [1]: < 100 nM

Compound: O=C(NCCN1CCOCC1)c1cccc(CNC(=O)c2cc(NC(=O)c3cc(F)c(F)cc3Cl)[nH]n2)c1 [Example 5-11]
IC50 [1]: < 100 nM

Compound: NCc1ccnc(CNC(=O)c2cc(NC(=O)c3cc(F)c(F)cc3Cl)[nH]n2)c1 [Example 5-18]
IC50 [1]: < 100 nM

Compound: O=C(Nc1cccc2ncccc12)c1cc(NC(=O)c2cc(F)c(F)cc2Cl)[nH]n1 [Example 5-36]
inhibition rate (%) at a certain concentration: 17.8% (100)

Compound: O=C(Nc1cccc2cccnc12)c1cc(NC(=O)c2cc(F)c(F)cc2Cl)[nH]n1 [Example 5-37]
inhibition rate (%) at a certain concentration: 22.3% (100)

Compound: O=C(Nc1cccc2cnccc12)c1cc(NC(=O)c2cc(F)c(F)cc2Cl)[nH]n1 [Example 5-38]
inhibition rate (%) at a certain concentration: 15.2% (100)

Compound: CN1CCN(c2ccc(CNC(=O)c3cc(NC(=O)c4cc(F)c(F)cc4Cl)[nH]n3)cn2)CC1 [Example 5-39]
IC50 [1]: < 100 nM

Compound: CN(C)C1CCN(c2ccc(CNC(=O)c3cc(NC(=O)c4cc(F)c(F)cc4Cl)[nH]n3)cn2)CC1 [Example 5-40]
IC50 [1]: < 100 nM

Compound: CN(C(=O)c1cc(NC(=O)c2cc(F)c(F)cc2Cl)[nH]n1)c1ccc(-c2nnc[nH]2)cc1 [Example 6-8]
inhibition at 0.3 µM: 11.7%
